Structures can show the parent of a compound that is named as a salt.
Experiments:
Rats = test: Rat left anterior descending coronary artery ligation, histological examination of hearts; assay type: in vivo; conditions: 10 mg/kg daily intraperitoneal for 30 days before ligation and 14 days after
Experimental: Rats received a daily intraperitoneal dose of 10 mg/kg 3-[2-phenyl-2-oxoethyl]-4,5-dimethyl-thiazolium salt (compound A) (n=14) or placebo (n=15) for 30 days. The animals then underwent a thoracotomy and the left anterior descending coronary artery ligated. The chest was then closed and the animals allowed to recover for 14 days while continuing to be treated with compound A or placebo. The animals were then sacrificed and the hearts removed for histological examination. The weight of the infarcted tissue was 0.16±0.04 g for the placebo treated animals compared to 0.11±0.05 g for the compound A treated animals (p=0.04).

[1] = test system: elderly patients with pulse pressures greater than 60 mm Hg; test: Phase Ia clinical trial; assay type: in vivo, human
Description: When the heart pumps blood into the vascular system, the ability of the arteries to expand helps to push blood through the body. When arteries become stiff, as they do in the natural process of aging, the ability of the arteries to expand is diminished and also has consequences for the heart. The heart has to work harder to pump the blood into the stiff arteries, and eventually hypertrophies (enlarges in size) to accomplish this. A hypertrophied heart is an inefficient pump, and is one of the disorders that leads to congestive heart failure. […] The potential clinical benefit of this is to lessen the effort that the heart must expend to push blood throughout the body. The effect is also believed to contribute to preventing hypertrophy and subsequent inefficiency of the heart, which inefficiency would contribute to congestive heart failure.
Atherosclerosis is a disease that involves deposition of blood lipids in plaque in the arteries throughout the body. In coronary arteries, accumulation of plaque progressively leads to reduced coronary flow, with occlusion of the arteries causing focal death of cardiac tissue (myocardial infarction, heart attack). If the amount of tissue that dies is large enough, death ensures. […]

dog model for diabetes = test: Dog model for diabetes, indicators of ventricular elasticity; assay type: in vivo
Description: (§1) Cardiovascular risk correlates more closely with the systolic and the pulse pressure than with the diastolic pressure. In diabetic patients, the cardiovascular risk profile of diabetic patients is strongly correlated to duration of diabetes, glycemic control and blood pressure. Structural matrix proteins contribute to the function of vessels and the heart, and changes in the physical behavior of cardiovascular walls are believed to be important determinants of circulatory function. In elderly individuals, the loss of compliance in the aorta leads to isolated systolic hypertension, which in turn expands the arterial wall and thereby diminishes the dynamic range of elasticity. […] Treatment with 3-[2-phenyl-2-oxoethyl]-4,5-dimethyl-thiazolium salt lead to a reduction in the mass of collagen in cardiovascular tissues.

[2] = test system: rodents, canines and primates; test: In vivo studies of vascular stiffening and collagen mass in cardiovascular tissues
Description: as §1

TGFbeta = test: In situ hybridization studies
Description: as §1

Type IV collagen = test: In situ hybridization studies
Description: as §1

Cc1sc[n+](CC(=O)c2ccccc2)c1C [compound A, 3-[2-phenyl-2-oxoethyl]-4,5-dimethyl-thiazolium salt]
thickness of the ventricular wall in the infarcted zone (Rats): 2.56±0.22 mm | weight of the infarcted tissue (Rats): 0.11 ± 0.05 g | stiffness of arteries, as measured by the ratio of stroke volume (ml) to pulse pressure (mm Hg) ([1]; Phase Ia clinical trial): showed an ability to reverse the stiffness of arteries | pulse pressure ([1]; Phase Ia trial, elderly patients with pulse pressures greater than 60 mm Hg): reduced | end diastolic pressure (dog model for diabetes): returned to a value at about the mid-point between the disease impaired value and the value for control dogs | end diastolic volume (dog model for diabetes): returned to a value at about the mid-point between the disease impaired value and the value for control dogs | mass of collagen in cardiovascular tissues ([2]; in vivo): reduction | vascular stiffening ([2]; in vivo studies in rodents, canines and primates): substantially ameliorating vascular stiffening | expression of TGFbeta (TGFbeta): reduces | expression of Type IV collagen (Type IV collagen): reduces

From US20020107245A1, “Method for treating fibrotic diseases or other indications IVC” (priority 2000, published 2002)
